According to US9783485B1, “Crystalline inhibitor of 4-hydroxyphenylpyruvate dioxygenase, and a process of synthesis and crystallization thereof” (Dipharma S.A., priority 2016, dated 2017):

Test: Stability studies of nitisinone obtained through the process of the invention (storage; appearance, KF water, HPLC assay, impurities by HPLC and HPLC/MS)
Type: physicochemical
From the text: When referring to purity determined by HPLC techniques, said chromatograms are gathered at a wavelength of 235 nm. […] The presence of impurity-4 was checked by reverse HPLC/MS using the method described in the table underneath. [table] [table]

- stability (in words) (even in accelerated conditions, period of at least six months): extremely stable
- impurity-4 content (in words) (independently from the storage conditions, reverse HPLC/MS): below the limit of quantification
SMILES: O=C1CCCC(=O)C1C(=O)c1ccc(C(F)(F)F)cc1[N+](=O)[O-] [nitisinone, 2-(2-nitro-4-trifluoromethylbenzoyl)-1,3-cyclohexanedione]
